Measurements taken from ChEMBL document CHEMBL1828599, “Synthesis, fluorescence and biodistribution of a bone-targeted near-infrared conjugate” (Eur J Med Chem, 2011).

Experiments:
[1] = test system: Mus musculus; assay: Biodistribution in bone joint of BALB/C mouse at 1.7 x 10^-6 mol/kg, iv as single dose measured at 24 hrs by fluorescence imaging technique; type: ADME, organism-based, Bone element; conditions: in vivo
[2] = test system: Kidney; assay: Biodistribution in Kidney of BALB/C mouse at 1.7 x 10^-6 mol/kg, iv as single dose measured at 4 hrs by fluorescence imaging technique; type: ADME, organism-based; conditions: in vivo
[3] = test system: Liver; assay: Biodistribution in liver of BALB/C mouse at 1.7 x 10^-6 mol/kg, iv as single dose measured up to 60 mins by fluorescence imaging technique; type: ADME, organism-based; conditions: in vivo, 1 h
[4] = test system: Liver; assay: Biodistribution in liver of BALB/C mouse at 1.7 x 10^-6 mol/kg, iv as single dose measured at 4 hrs by fluorescence imaging technique; type: ADME, organism-based; conditions: in vivo
[5] = test system: Duodenum; assay: Biodistribution in duodenum of BALB/C mouse at 1.7 x 10^-6 mol/kg, iv as single dose measured at 4 hrs by fluorescence imaging technique; type: ADME, organism-based; conditions: in vivo
[6] = test system: Mus musculus; assay: Biodistribution in bone joint of BALB/C mouse at 1.7 x 10^-6 mol/kg, iv as single dose measured up to 8 days by fluorescence imaging technique; type: ADME, organism-based, Bone element; conditions: in vivo, 192 h
[7] = test system: Mus musculus; assay: Biodistribution in soft tissue of BALB/C mouse at 1.7 x 10^-6 mol/kg, iv as single dose measured at 24 hrs by fluorescence imaging technique; type: ADME, organism-based; conditions: in vivo
[8] = test system: Mus musculus; assay: Biodistribution in hip bone of BALB/C mouse at 1.7 x 10^-6 mol/kg, iv as single dose measured at 24 hrs by fluorescence imaging technique; type: ADME, organism-based, Bone of hip region; conditions: in vivo
[9] = test system: Mus musculus; assay: Biodistribution in leg bone of BALB/C mouse at 1.7 x 10^-6 mol/kg, iv as single dose measured at 24 hrs by fluorescence imaging technique; type: ADME, organism-based, Bone element; conditions: in vivo
[10] = test system: Mus musculus; assay: Biodistribution in bone joint of BALB/C mouse at 1.7 x 10^-6 mol/kg, iv as single dose measured at 16 days by fluorescence imaging technique; type: ADME, organism-based, Bone element; conditions: in vivo, 384 h

Row | SMILES | Drug uptake [1] | Drug uptake [2] | Drug uptake [3] | Drug uptake [4] | Drug uptake [5] | Drug uptake [6] | Drug uptake [7] | Drug uptake [8] | Drug uptake [9] | Drug uptake [10]
1 | CC1(C)C(/C=C/C=C/C=C/C=C2\N(CCCCC(=O)O)c3ccc4ccccc4c3C2(C)C)=[N+](CCCCS(=O)(=O)[O-])c2ccc3ccccc3c21 | Not Active | Active | Active | Active | Active | – | – | – | – | –
2 | CC1(C)C(/C=C/C=C/C=C/C=C2\N(CCCCC(=O)O)c3ccc4ccccc4c3C2(C)C)=[N+](CCCCC(=O)[O-])c2ccc3ccccc3c21 | Not Active | Active | Active | Active | Active | – | – | – | – | –
3 | CC1(C)C(/C=C/C=C/C=C/C=C2/N(CCCCS(=O)(=O)[O-])c3ccc4ccccc4c3C2(C)C)=[N+](CCCCS(=O)(=O)[O-])c2ccc3ccccc3c21.[Na+] [INDOCYANINE GREEN] | Active | Active | Active | Active | Active | – | – | – | – | –
4 | CC1(C)C(/C=C/C=C/C=C/C=C2\N(CCCCC(=O)CCCC(O)(P(=O)([O-])O)P(=O)(O)O)c3ccc4ccccc4c3C2(C)C)=[N+](CCCCS(=O)(=O)[O-])c2ccc3ccccc3c21.[Na+] | – | – | – | – | – | Active | Not Active | Active | Active | Not Active
